Where two headings read alike, the source gives them in different places.
Experiments:
[1] = system: Mino, Jekol and JVM-1 cells; test: migration assay, CXCL12-induced; details: Mino and Jekol more sensitive than JVM-1
Mino cells [2] = test: co-culture assay: migration of Mino cells beneath M2-10B4 stromal cells (pseudoemperipoliesis); assay type: cell-based, human; details: significant at 100 nM (p<0.01) and 1000 nM (p<0.001)
LY10 = test: growth inhibition by PCI-32765, LY10; assay type: cell-based; details: Homo sapiens; LY10, DLBCL, ABC
WSU-DLCL2 = test: growth inhibition by PCI-32765, WSU-DLCL2; assay type: cell-based; details: Homo sapiens, WSUDLCL2; WSU-DLCL2, FL-transformed
[3] = system: B cell lymphoma derived cell lines; test: growth inhibition in a subset of B cell lymphoma derived cell lines; assay type: cell-based; details: Homo sapiens, read-out: GI50 values, range
DHL-6 = test: growth inhibition by PCI-32765, DHL-6; assay type: cell-based; details: Homo sapiens; DHL-6, DLBCL, GCB
MCL patients = test: ALC and tumor volume (SPD) in MCL patients treated with ibrutinib
Mino cells [4] = test: migration assay, CXCL13 stimulated; details: dose-dependently from 1 nM to 1 μM
Granta-519 = test: growth inhibition by PCI-32765, Granta-519; assay type: cell-based; details: Homo sapiens; Granta-519, Mantle cell
DB = test: growth inhibition by PCI-32765, DB; assay type: cell-based; details: Homo sapiens, DLBCL
[5] = system: plasma chemokines and cytokines; test: plasma chemokine and cytokine concentrations of ibrutinib treated MCL patients
DOHH2 = test: growth inhibition by PCI-32765, DOHH2; assay type: cell-based; details: Homo sapiens, DOHH-2; DOHH2, FL-transformed
[6] = set-up: species or system human; details: in vivo
[7] = system: subjects with B-cell malignancies
Source text: The dose-escalation portion of this open-label trial enrolled subjects with B-cell malignancies (histologies listed in Table 2, below) and is now completed.

[8] = system: Btk, PLCy2, Erk, JNK and Akt phosphorylation; test: Btk signaling in MCL cell lines after anti-IgM, CXCL12 and CXCL13 stimulation; details: following anti-IgM, CXCL12 and CXCL13 stimulations
DHL-4 = test: growth inhibition by PCI-32765, DHL-4; assay type: cell-based; details: Homo sapiens; DHL-4, DLBCL, GCB

C=CC(=O)N1CCC[C@@H](n2nc(-c3ccc(Oc4ccccc4)cc3)c3c(N)ncnc32)C1 [PCI-32765, (R)-1-(3-(4-amino-3-(4-phenoxyphenyl)-1H-pyrazolo[3,4-d]pyrimidin-1-yl)piperidin-1-yl)prop-2-en-1-one]
CXCL12-induced migration [1]: dose-dependently inhibited
migration of Mino cells beneath the stromal cells (Mino cells [2]): dose-dependently inhibited
GI50 (LY10): 100 nM
GI50 (WSU-DLCL2): 500 nM
GI50 [3]: 100 to 5500 nM
GI50 (DHL-6): 180 nM
increase in ALC (MCL patients; Phase 2, 560 mg per day, following 2-4 weeks of drug treatment): 100-150%
reduction of tumor volumes (Sum of Perpendicular Diameters, SPD), on average (MCL patients; Phase I, MCL patients (n=9), evaluations following 2, 4 and 6 cycles): 80%
CXCL13 stimulated migration of Mino cells (Mino cells [4]): significantly inhibited
GI50 (Granta-519): > 10000 nM
GI50 (DB): > 10000 nM
reduction of plasma chemokines such as MDC, MIP-1β, and CXCL13 ([5]; after one week of treatment): 40-60%
reduction of IL-10 and TNF-α ([5]; by the end of the first cycle of treatment): 50%
reduction of chemokines MDC, MIP-1β, CXCL13 and CXCL17, on average ([5]; following one week of treatment): more than 50%
GI50 (DOHH2): 120 nM
DLTs at the final dose level [6]: No DLTs were observed
dose limiting toxicities (DLTs) documented [6]: Two
CR ([7]; DLBCL (7 patients)): 0
ORR (ITT) ([7]; DLBCL (7 patients)): 29%
ORR (evaluable pts) ([7]; DLBCL (7 patients)): 29%
PD ([7]; DLBCL (7 patients)): 4
PR ([7]; DLBCL (7 patients)): 2
CR ([7]; FL (16 patients)): 3
ORR (ITT) ([7]; FL (16 patients)): 38%
ORR (evaluable pts) ([7]; FL (16 patients)): 46%
PD ([7]; FL (16 patients)): 4
PR ([7]; FL (16 patients)): 3
CR ([7]; MCL (9 patients)): 3
PD ([7]; MCL (9 patients)): 1
PR ([7]; MCL (9 patients)): 4
CR ([7]; MZL/MALT (4 patients)): 0
ORR (ITT) ([7]; MZL/MALT (4 patients)): 25%
ORR (evaluable pts) ([7]; MZL/MALT (4 patients)): 33%
PD ([7]; MZL/MALT (4 patients)): 1
PR ([7]; MZL/MALT (4 patients)): 1
ORR (ITT) ([7]; Overall (56 patients)): 54%
PD ([7]; Overall (56 patients)): 10
CR ([7]; WM (4 patients)): 0
PR ([7]; WM (4 patients)): 3
phosphorylation of Btk and downstream PLCy2, Erk, JNK and Akt [8]: inhibited
GI50 (DHL-4): 530 nM

From US20170266186A1, “USE OF INHIBITORS OF BRUTON'S TYROSINE KINASE (BTK)” (Pharmacyclics LLC, priority 2011, published 2017)
